Experimental data reported in patent publication US20230340127A1, “METHODS AND COMPOSITIONS FOR CANCER TREATMENT BY INHIBITION OF FBXO44” (Sanford Burnham Prebys Medical Discovery Institute, priority 2022, published 2023).

System: MDA-MB-231 or 4T1 cells
Test: qRT-PCR of endogenous retroelements, IFN-α/β, ISGs and PD-L1 in F5446-treated cells
Type: cell-based
Details: cancer cells (MDA-MB-231, 4T1), qRT-PCR (FIGS. 10F-10G)
Experimental: Quantitative (q)RT-PCR: total RNA was isolated using the RNeasy Plus Mini Kit (Qiagen no. 74134). cDNA was synthesized using qScript cDNA SuperMix (Quantabio no. 95048) following the manufacturer's instructions. qPCR reactions were performed using SYBR Select Master Mix (Thermo Fisher Scientific no. 4472908) and a Stratagene Mx3000P instrument (Agilent Technologies). Thermal cycling conditions included an initial denaturation step of 95° C. for 10 min and 40 cycles at 95° C. for 15 sec and 60° C. for 60 sec. Analyses were carried out in triplicate for each data point. The qPCR primers used for gene expression analysis of human REs and genes included MajSAT-[…] (SEQ ID NO: 1) and […] (SEQ ID NO: 2), mcBox-[…] (SEQ ID NO: 3) and […] (SEQ ID NO: 4), SATIII-[…] (SEQ ID NO: 5) and […] (SEQ ID NO: 6), Alu-[…] (SEQ ID NO: 7) and […] (SEQ ID NO: 8), L1 ORF1-TGGCCCCCACTCTCTTCT (SEQ ID NO: 18) and […] (SEQ ID NO: 19), L1 ORF2-[…] (SEQ ID NO: 20) and […] (SEQ ID NO: 21), L1 5′-UTR-AAGCAAGCCTGGGCAATG (SEQ ID NO: 22) and […] (SEQ ID NO: 23), HERV-E-[…] (SEQ ID NO: 24) and GCAGCCTAGGTCTCTGG (SEQ ID NO: 25), HERV-F-CCTCCAGTCACAACAACTC (SEQ ID NO: 26) and TATTGAAGAAGGCGGCTGG (SEQ ID NO: 27), HERV-K-[…] (SEQ ID NO: 28) and […] (SEQ ID NO: 29), ERVL-[…] (SEQ ID NO: 30) and […] (SEQ ID NO: 31), GAPDH-[…] (SEQ ID NO: 32) and […] (SEQ ID NO: 33), FBXO44-[…] (SEQ ID NO: 34) and […] (SEQ ID NO: 35), SUV39H1-[…] […]

COC(=O)c1cc2c(n1S(=O)(=O)c1ccc(Cl)cc1)C(=O)C(=O)c1[nH]cc(C(=O)OCc3ccccc3)c1-2 [F5446]
expression of various REs and IFN signaling: activated
